Experimental data taken from patent US11331304B2, “YAP1 inhibitors and methods” (The Jackson Laboratory, priority 2016, dated 2022).

Test: Solubility of verteporfin derivative compounds in water and buffer (pH = 2)
Type: physicochemical
Conditions: for Buffer (pH = 2) result, fraction dissolved / Buffer (pH = 2) result: phosphate buffer pH = 2; for Water result: at the amount per volume in mg/mL

Compound	Buffer (pH = 2) result, fraction dissolved [%]	Water result	Buffer (pH = 2) result
C=Cc1c(C)c2cc3nc(cc4[nH]c(cc5nc(cc1[nH]2)C(C)=C5CCC(=O)NCCCC[C@H](N)C(=O)O)c(CCC(=O)NCCCC[C@H](N)C(=O)O)c4C)[C@@]1(C)C3=CC=C(C(=O)OC)[C@H]1C(=O)OC [Compound T7, (2S)-2-amino-6-[3-[(23 S,24R)-14-ethenyl-5-[3-[[(5 S)-5-amino-5-carboxy-pentyl]amino]-3-oxo-propyl]-22,23-bis(methoxycarbonyl)-4,10,15,24-tetramethyl-25,26,27,28-tetraazahexacyclo[16.6.1.13,6.18,11.113,16.019,24]octacosa-1,3,5,7,9,11(27),12,14,16,18(25), 19,21-dodecaen-9-yl]propanoylamino]hexanoic acid]		soluble	soluble
C=Cc1c(C)c2cc3nc(cc4[nH]c(cc5nc(cc1[nH]2)C(C)=C5CCC(=O)OCCOCCOCCOC)c(CCC(=O)OC)c4C)[C@@]1(C)C3=CC=C(C(=O)OC)[C@H]1C(=O)OC [Compound T8, Methyl 3-[(23S,24R)-14-ethenyl-9-[3-[2-[2-(2-methoxyethoxy)ethoxy]ethoxy]-3-oxo-propyl]-22,23-bis(methoxycarbonyl)-4,10,15,24-tetramethyl-25,26,27,28-tetraazahexacyclo[16.6.1.13,6.18,11.113,16.019,24]octacosa-1,3,5,7,9,11(27),12,14,16,18(25), 19,21-dodecaen-5-yl]propanoate]		insoluble	insoluble
C=Cc1c(C)c2cc3nc(cc4[nH]c(cc5nc(cc1[nH]2)C(C)=C5CCC(=O)OCCOCCOCCOCCOCCOCCOCCOC)c(CCC(=O)OC)c4C)[C@@]1(C)C3=CC=C(C(=O)OC)[C@H]1C(=O)OC [Compound T10, Methyl 3-[(23S,24R)-14-ethenyl-9-[3-[2-[2-[2-[2-[2-[2-(2-methoxyethoxy)ethoxy]ethoxy]ethoxy]ethoxy]ethoxy]ethoxy]-3-oxo-propyl]-22,23-bis(methoxycarbonyl)-4,10,15,24-tetramethyl-25,26,27,28-tetraazahexacyclo[16.6.1.13,6.18,11.113,16.019,24]octacosa-1,3,5,7,9,11(27),12,14,16,18(25), 19,21-dodecaen-5-yl]propanoate]		insoluble	insoluble
C=Cc1c(C)c2cc3nc(cc4[nH]c(cc5nc(cc1[nH]2)C(C)=C5CCC(=O)N(C)CCN(C)C)c(CCC(=O)OC)c4C)[C@@]1(C)C3=CC=C(C(=O)OC)[C@H]1C(=O)OC [Compound T14, Methyl 3-[(23S,24R)-14-ethenyl-9-[3-[2-(dimethylamino)ethyl-methyl-amino]-3-oxo-propyl]-22,23-bis(methoxycarbonyl)-4,10,15,24-tetramethyl-25,26,27,28-tetraazahexacyclo[16.6.1.13,6.18,11.113,16.019,24]octacosa-1,3,5,7,9,11(27), 12,14,16,18(25), 19,21-dodecaen-5-yl]propanoate]		insoluble	soluble
C=Cc1c(C)c2cc3nc(cc4[nH]c(cc5nc(cc1[nH]2)C(C)=C5CCC(=O)N(C)CCN(C)C)c(CCC(=O)N(C)CCN(C)C)c4C)[C@@]1(C)C3=CC=C(C(=O)OC)[C@H]1C(=O)OC [Compound T15, N-[2-(dimethylamino)ethyl]-3-[(23 S,24R)-14-ethenyl-5-[3-[2-(dimethylamino)ethyl-methyl-amino]-3-oxo-propyl]-22,23-bis(methoxycarbonyl)-4,10,15,24-tetramethyl-25,26,27,28-tetraazahexacyclo[16.6.1.13,6.18,11.113,16.019,24]octacosa-1,3,5,7,9,11(27), 12,14,16,18(25),19,21-dodecaen-9-yl]-N-methyl-propanamide]		soluble	soluble

Results, then the molecule that gave them:

Buffer (pH = 2) result, fraction dissolved [%]	Water result	Buffer (pH = 2) result	Compound
~20	insoluble		C=Cc1c(C)c2cc3nc(cc4[nH]c(cc5nc(cc1[nH]2)C(C)=C5CCC(=O)N[C@@H](CC(=O)O)C(=O)O)c(CCC(=O)OC)c4C)[C@@]1(C)C3=CC=C(C(=O)OC)[C@H]1C(=O)OC [Compound T1, (2S)-2-[3-[(23 S,24R)-14-ethenyl-5-(3-methoxy-3-oxopropyl)-22,23-bis(methoxycarbonyl)-4,10,15,24-tetramethyl-25,26,27,28-tetraazahexacyclo[16.6.1.13,6.18,11.113,16.019,24]octacosa-1,3,5,7,9,11(27),12,14,16,18(25), 19,21-dodecaen-9-yl]propanoylamino]butanedioic acid]
	insoluble	insoluble	C=Cc1c(C)c2cc3nc(cc4[nH]c(cc5nc(cc1[nH]2)C(C)=C5CCC(=O)N[C@@H](CC(=O)O)C(=O)O)c(CCC(=O)N[C@@H](CC(=O)O)C(=O)O)c4C)[C@@]1(C)C3=CC=C(C(=O)OC)[C@H]1C(=O)OC [Compound T3, (2S)-2-[3-[(23 S,24R)-14-ethenyl-5-[3-[[(1 S)-1,2-dicarboxyethyl]amino]-3-oxo-propyl]-22,23-bis(methoxycarbonyl)-4,10,15,24-tetramethyl-25,26,27,28-tetraazahexacyclo[16.6.1.13,6.18,11.113,16.019,24]octacosa-1,3,5,7,9,11(27),12,14,16,18(25), 19,21-dodecaen-9-yl]propanoylamino]butanedioic acid]
~80	insoluble		C=Cc1c(C)c2cc3nc(cc4[nH]c(cc5nc(cc1[nH]2)C(C)=C5CCC(=O)NCCC(=O)N[C@@H](CC(=O)O)C(=O)O)c(CCC(=O)OC)c4C)[C@@]1(C)C3=CC=C(C(=O)OC)[C@H]1C(=O)OC [Compound T4, (2S)-2-[3-[3-[(23 S,24R)-14-ethenyl-5-(3-methoxy-3-oxopropyl)-22,23-bis(methoxycarbonyl)-4,10,15,24-tetramethyl-25,26,27,28-tetraazahexacyclo[16.6.1.13,6.18,11.113,16.019,24]octacosa-1,3,5,7,9,11(27),12,14,16,18(25), 19,21-dodecaen-9-yl]propanoylamino]propanoylamino]butanedioic acid]
	soluble	soluble	C=Cc1c(C)c2cc3nc(cc4[nH]c(cc5nc(cc1[nH]2)C(C)=C5CCC(=O)NCCCC[C@H](N)C(=O)O)c(CCC(=O)OC)c4C)[C@@]1(C)C3=CC=C(C(=O)OC)[C@H]1C(=O)OC [Compound T5, (2S)-2-amino-6-[3-[(23 S,24R)-14-ethenyl-5-(3-methoxy-3-oxopropyl)-22,23-bis(methoxycarbonyl)-4,10,15,24-tetramethyl-25,26,27,28-tetraazahexacyclo[16.6.1.13,6.18,11.113,16.019,24]octacosa-1,3,5,7,9,11(27),12,14,16,18(25), 19,21-dodecaen-9-yl]propanoylamino]hexanoic acid]
~70	insoluble		C=Cc1c(C)c2cc3nc(cc4[nH]c(cc5nc(cc1[nH]2)C(C)=C5CCC(=O)NCCN(C)C)c(CCC(=O)OC)c4C)[C@@]1(C)C3=CC=C(C(=O)OC)[C@H]1C(=O)OC [Compound T11, Methyl 3-[(23 S,24R)-14-ethenyl-9-[3-[2-(dimethylamino)ethylamino]-3-oxo-propyl]-22,23-bis(methoxycarbonyl)-4,10,15,24-tetramethyl-25,26,27,28-tetraazahexacyclo[16.6.1.13,6.18,11.113,16.019,24]octacosa-1,3,5,7,9,11(27), 12,14,16,18(25), 19,21-dodecaen-5-yl]propanoate]
